Experimental data taken from paper PMC11887451, “Leveraging Immunogenic Cell Death to Enhance the Immune Response against Malignant Pleural Mesothelioma Tumors” (Journal of the American Chemical Society, 2025).

System: calreticulin (CRT) in AB12 cells
Test: CRT detection, flow cytometry
Assay type: cell-based, mouse
Conditions: AB12, 5 × IC50 (72 h), 120 min
Description: page 23: concentrations for 100 min at 37 °C. After the treatment, the supernatant was collected in 2 mL microtubes, centrifuged (300 × g, 5 min) and the media was removed. The adherent cells were then trypsinized with 500 μL of trypsin at 37 °C for 5 min. Next, 1 mL of medium was added to neutralize trypsin and the resulting cell suspension was combined with the supernatant. The wells were washed with 200 μL of PBS, which was also combined with the supernatant. The combined solutions were centrifuged (300 × g, 5 min), and the resulting pellets were washed with PBS (2 × 1 mL) and resuspended in 200 μL of Annexin V binding buffer. […] Cell death was evaluated by flow cytometry using a CytoFLEX Flow Cytometer equipped with a 488 nm laser and a 638 nm laser (Beckman Coulter, Brea, CA, USA). The cells were excited by the 488 nm laser, and fluorescence emissions were detected at 525/40 nm for FITC (Annexin V) and at 610/20 nm for ECD (PI). […] The percentage of necrosis was determined by calculating the sum of cells in Q1 and Q2. […] Next, cells were incubated with CRT antibody conjugated with AlexaFluor S23 page 24: 488 (62304S, Cell Signaling Technology) at 4 °C overnight, washed twice with PBS, reconstituted in 500 µL of PBS and analyzed by flow cytometry using a CytoFLEX Flow Cytometer equipped with a 488 nm laser and a 638 nm laser (Beckman Coulter, Brea, CA, USA). […]

## Nc1nc2[nH]cc(CCc3ccc(C(=O)N[C@@H](CCC(=O)O)C(=O)O)cc3)c2c(=O)[nH]1 [Pemetrexed, pemetrexed, reference compound]
  CRT expression (in words): no changes in CRT expression
